Measured values published in patent publication US7531482B2, “Thieno-pyrimidine compounds having fungicidal activity” (Dow AgroSciences LLC, priority 2005, dated 2009).

Tests used:
Type in all cases: in vivo
[1] = tested on: Magnaporthe grisea=Pyricularia oryzae; assay: whole plant or invertebrate; details: for pest or weed control at 200 ppm: read-out: PYRIOR disease control, 200 ppm applied to foliage of rice
Colletotricum lagenarium = assay: Cucumber Anthracnose (COLLLA) whole-plant disease control test; details: for pest or weed control at 200 ppm: read-out: COLLLA disease control
Phytophthora infestans = assay: whole plant or invertebrate; details: for pest or weed control at 200 ppm: read-out: PHYTIN disease control, 200 ppm applied to foliage of tomato
[2] = tested on: Mycosphaerella graminicola=Septoria tritici; assay: Speckled Leaf Blotch of Wheat (SEPTTR) whole-plant disease control test; details: 75 ppm applied to foliage of wheat; for pest or weed control at 75 ppm: Mycosphaerella, foliar, read-out: SEPTTR disease control
Leptosphaeria nodorum = assay: Glume Blotch of Wheat (LEPTNO) whole-plant disease control test; details: for pest or weed control at 200 ppm: read-out: LEPTNO disease control
Erysiphe cichoracaerum = assay: Cucumber Powdery Mildew (ERYSCI) whole-plant disease control test; details: for pest or weed control at 200 ppm: read-out: ERYSCI disease control
[3] = tested on: Puccinia recondita tritici; assay: Leaf Rust of Wheat (PUCCRT) whole-plant disease control test; details: for pest or weed control at 200 ppm: read-out: PUCCRT disease control
[4] = Pyricularia oryzae, foliar, inoculated one day after treatment
[5] = Cucumis sativus, foliar, 200 ppm applied to foliage of cucumber, inoculated one day after treatment
[6] = Phytophthora infestans, in Solanum lycopersicum, foliar, inoculated one day after treatment
[7] = Parastagonospora nodorum, foliar, 200 ppm applied to foliage of wheat, inoculated one day after treatment
[8] = Erysiphe, foliar, 200 ppm applied to foliage of cucumber, inoculated one day after treatment
[9] = Puccinia recondita, foliar, 200 ppm applied to foliage of wheat, inoculated one day after treatment
[10] = 200 ppm applied to foliage of cucumber, inoculated one day after treatment
[11] = 200 ppm applied to foliage of wheat, inoculated one day after treatment

| SMILES | pest or weed control at 200 ppm [1, 4] | pest or weed control at 200 ppm (Colletotricum lagenarium; [5]) | pest or weed control at 200 ppm (Phytophthora infestans; [6]) | pest or weed control at 75 ppm [2] | pest or weed control at 200 ppm (Leptosphaeria nodorum; [7]) | pest or weed control at 200 ppm (Erysiphe cichoracaerum; [8]) | pest or weed control at 200 ppm [3, 9] | pest or weed control at 8.3 ppm ([1]; Pyricularia oryzae, foliar, read-out: PYRIOR disease control, 8.3 ppm (footnote c), rice foliage) | pest or weed control at 100 ppm (Colletotricum lagenarium; Cucumis sativus, foliar, 100 ppm (footnote a), cucumber foliage) | pest or weed control at 100 ppm (Phytophthora infestans; Phytophthora infestans, in Solanum lycopersicum, foliar, read-out: PHYTIN disease control, 100 ppm (footnote a), tomato foliage) | pest or weed control at 75 ppm (Leptosphaeria nodorum; Parastagonospora nodorum, foliar, 75 ppm (footnote b), wheat foliage) | pest or weed control at 100 ppm (Erysiphe cichoracaerum; Erysiphe, foliar, 100 ppm (footnote a), cucumber foliage) | pest or weed control at 8.3 ppm ([3]; Puccinia recondita, foliar, 8.3 ppm (footnote c), wheat foliage) | PYRIOR disease control ([1]; 200 ppm applied to foliage of rice, inoculated one day after treatment) | COLLLA disease control (Colletotricum lagenarium; [10]) | PHYTIN disease control (Phytophthora infestans; 200 ppm applied to foliage of tomato, inoculated one day after treatment) | SEPTTR disease control [2] | LEPTNO disease control (Leptosphaeria nodorum; [11]) | ERYSCI disease control (Erysiphe cichoracaerum; [10]) | PUCCRT disease control [3, 11] |
| --- | --- | --- | --- | --- | --- | --- | --- | --- | --- | --- | --- | --- | --- | --- | --- | --- | --- | --- | --- | --- |
| Cc1cc(Br)cnc1Oc1ccc(CCNc2ncnc3scc(Cl)c23)cc1 [Compound 42] | 80 to 100% | 0 to 49% | 0 to 49% | 80 to 100% | 50 to 79% | 0 to 49% | 0 to 49% |  |  |  |  |  |  |  |  |  |  |  |  |  |
| Clc1csc2ncnc(NCCc3ccc(Oc4cc(I)ccn4)cc3)c12 [Compound 43] | 80 to 100% | 50 to 79% | 0 to 49% | 80 to 100% | 80 to 100% | 80 to 100% | 80 to 100% |  |  |  |  |  |  |  |  |  |  |  |  |  |
| FC(F)(F)COc1ccnc(Oc2ccc(CCNc3ncnc4scc(Cl)c34)cc2)n1 [Compound 44] | 80 to 100% | 0 to 49% | 50 to 79% | 80 to 100% | 80 to 100% | 50 to 79% | 80 to 100% |  |  |  |  |  |  |  |  |  |  |  |  |  |
| Clc1nccc(Oc2ccc(CCNc3ncnc4scc(Cl)c34)cc2)n1 [Compound 45] | 50 to 79% | 0 to 49% | 0 to 49% | 50 to 79% | 0 to 49% | 0 to 49% | 80 to 100% |  |  |  |  |  |  |  |  |  |  |  |  |  |
| CC(=O)c1cnc(Oc2ccc(CCNc3ncnc4scc(Cl)c34)cc2)s1 [Compound 46] | 50 to 79% | 0 to 49% | 0 to 49% | 50 to 79% | 0 to 49% | 0 to 49% | 80 to 100% |  |  |  |  |  |  |  |  |  |  |  |  |  |
| N#Cc1ccnc(Oc2ccc(CCNc3ncnc4scc(Br)c34)cc2)c1 [Compound 47] |  |  |  | 50 to 79% |  |  |  | 80 to 100% | 0 to 49% | 0 to 49% | 80 to 100% | 80 to 100% | 80 to 100% |  |  |  |  |  |  |  |
| CO/N=C(\C)c1cnc(Oc2ccc(CCNc3ncnc4scc(Cl)c34)cc2)s1 [Compound 48] | 80 to 100% | 50 to 79% | 80 to 100% | 50 to 79% | 0 to 49% | 80 to 100% | 80 to 100% |  |  |  |  |  |  |  |  |  |  |  |  |  |
| c1csc(Oc2ccc(CCNc3ncnc4sccc34)cc2)n1 [Compound 49] | 80 to 100% | 50 to 79% | 80 to 100% | 50 to 79% | 50 to 79% | 80 to 100% | 80 to 100% |  |  |  |  |  |  |  |  |  |  |  |  |  |
| Cc1cc(Oc2ccc(CCNc3ncnc4scc(Cl)c34)cc2)cnc1S(C)(=O)=O [Compound 50] | 80 to 100% | 50 to 79% | 80 to 100% | 50 to 79% | 50 to 79% | 0 to 49% | 80 to 100% |  |  |  |  |  |  |  |  |  |  |  |  |  |
| Clc1cc(Br)cnc1Oc1ccc(CCNc2ncnc3scc(Cl)c23)cc1 [Compound 51] | 80 to 100% | 0 to 49% | 0 to 49% | 50 to 79% | 0 to 49% | 0 to 49% | 80 to 100% |  |  |  |  |  |  |  |  |  |  |  |  |  |
| CCc1ncnc(Oc2ccc(CCNc3ncnc4scc(Cl)c34)cc2)c1Cl [Compound 52] | 80 to 100% | 50 to 79% | 0 to 49% | 80 to 100% | 50 to 79% | 50 to 79% | 80 to 100% |  |  |  |  |  |  |  |  |  |  |  |  |  |
| N#Cc1ccnc(Oc2ccc(CCNc3ncnc4sccc34)cc2)c1 [Compound 53] | 80 to 100% | 80 to 100% | 80 to 100% | 50 to 79% | 50 to 79% | 50 to 79% | 80 to 100% |  |  |  |  |  |  |  |  |  |  |  |  |  |
| Clc1csc2ncnc(NCCc3ccc(Oc4ncnc5sccc45)cc3)c12 [Compound 54] | 80 to 100% | 80 to 100% | 80 to 100% | 0 to 49% | 50 to 79% | 50 to 79% | 80 to 100% |  |  |  |  |  |  |  |  |  |  |  |  |  |
| N#Cc1ccnc(Oc2ccc(CCNc3ncnc4scc(F)c34)cc2)c1 [Compound 55] | 0 to 49% | 80 to 100% | 50 to 79% | 50 to 79% | 0 to 49% | 50 to 79% | 80 to 100% |  |  |  |  |  |  |  |  |  |  |  |  |  |
| Brc1csc2ncnc(NCCc3ccc(Oc4ncnc5scc(Br)c45)cc3)c12 [Compound 57] | 80 to 100% | 50 to 79% | 0 to 49% | 0 to 49% | 0 to 49% | 0 to 49% | 80 to 100% |  |  |  |  |  |  |  |  |  |  |  |  |  |
| N#Cc1nc(Cl)ccc1Oc1ccc(CCNc2ncnc3scc(Cl)c23)cc1 [Compound 58] | 80 to 100% | 0 to 49% | 0 to 49% | 50 to 79% | 50 to 79% | 0 to 49% | 80 to 100% |  |  |  |  |  |  |  |  |  |  |  |  |  |
| N#Cc1nc(Oc2ccc(CCNc3ncnc4scc(Cl)c34)cc2)ccc1Cl [Compound 59] | 80 to 100% | 80 to 100% | 0 to 49% | 0 to 49% | 0 to 49% | 50 to 79% | 80 to 100% |  |  |  |  |  |  |  |  |  |  |  |  |  |
| Fc1cnc(C(F)(F)F)c(F)c1Oc1ccc(CCNc2ncnc3scc(Cl)c23)cc1 [Compound 61] | 80 to 100% | 80 to 100% | 0 to 49% | 80 to 100% | 50 to 79% | 80 to 100% | 80 to 100% |  |  |  |  |  |  |  |  |  |  |  |  |  |
| FC(F)(F)c1cc(Cl)nc(Oc2ccc(CCNc3ncnc4scc(Cl)c34)cc2)c1 [Compound 62] | 80 to 100% | 80 to 100% | 0 to 49% | 50 to 79% | 0 to 49% | 50 to 79% | 80 to 100% |  |  |  |  |  |  |  |  |  |  |  |  |  |
| COc1cc(C(F)(F)F)cc(Oc2ccc(CCNc3ncnc4scc(Cl)c34)cc2)n1 [Compound 63] | 80 to 100% | 50 to 79% | 50 to 79% | 50 to 79% | 0 to 49% | 80 to 100% | 80 to 100% |  |  |  |  |  |  |  |  |  |  |  |  |  |
| FC(F)(F)c1cnc(Oc2ccc(CCNc3ncnc4scc(Cl)c34)cc2)c(Cl)c1 [Compound 64] | 80 to 100% | 50 to 79% | 0 to 49% | 80 to 100% | 0 to 49% | 80 to 100% | 80 to 100% |  |  |  |  |  |  |  |  |  |  |  |  |  |
| FC(F)(F)c1ccc(Oc2ccc(CCNc3ncnc4scc(Cl)c34)cc2)cn1 [Compound 65] | 80 to 100% | 80 to 100% | 80 to 100% | 80 to 100% | 50 to 79% | 50 to 79% | 80 to 100% |  |  |  |  |  |  |  |  |  |  |  |  |  |
| Cc1noc2ncnc(Oc3ccc(CCNc4ncnc5scc(Cl)c45)cc3)c12 [Compound 66] | 50 to 79% | 0 to 49% | 0 to 49% | 50 to 79% | 0 to 49% | 0 to 49% | 80 to 100% |  |  |  |  |  |  |  |  |  |  |  |  |  |
| FC(F)(F)c1ccc(Oc2cccc(CCNc3ncnc4scc(Cl)c34)c2)nc1 [Compound 67, (5-Chlorothieno[2,3-d]pyrimidin-4-yl)-{2-[3-(5-trifluoromethylpyridin-2-yloxy)phenyl]ethyl}amine] | 80 to 100% | 0 to 49% | 50 to 79% | 80 to 100% | 50 to 79% | 50 to 79% | 80 to 100% |  |  |  |  |  |  |  |  |  |  |  |  |  |
| Clc1csc2ncnc(NCCc3ccc(Oc4ncnc5scc(Cl)c45)cc3)c12 [Compound 68] |  |  |  |  |  |  |  |  |  |  |  |  |  | *** (*** = 80–100 percent control) | * (* = 0–49 percent control) | ** (** = 50–79 percent control) | * (* = 0–49 percent control) | * (* = 0–49 percent control) | * (* = 0–49 percent control) | *** (*** = 80–100 percent control) |
